Assay [1] has as its system Clostridioides difficile ATCC 43255. Put plainly: MIC determination using broth microdilution method, anaerobic bacteria. In kind it is cell-based. Conditions: for MIC: ATCC43255, Clostridioides difficile ATCC 43255, broth microdilution, anaerobic, 37° C., 48 h. As for the experimental part:
0.10 g of sterile cycloserine and 3.20 mg of sterile cefoxitin (filtered by a filter membrane and sterilized) were added to every 200 mL, mixed well, and poured into a sterile petri dish for later use.
S3, culture of Clostridioides difficile strain: 1) the strain stored at −80° C. was resuscitated in an anaerobic glove box with a cycloserine-cefoxitin-fructose agar medium plate, and statically cultured at 37° C. in a constant-temperature incubator for 48 h; • 2) single colonies were picked, and statically cultured in the brain heart infusion broth medium overnight at 37° C. in the constant-temperature incubator; and • 3) the bacterial solution that was statically cultured overnight was transferred into the anaerobic glove box with the brain heart infusion broth medium at a ratio of 1:100, and cultured for 3-4 h until the OD600 was between 0.6 and 0.8; and during this process, 5 g/L of yeast extract solution was added to increase a strain concentration.
(§1) The culture process of the strain was operated in the anaerobic glove box. After the operation was completed, the strain was well sealed with an anaerobic bag or an anaerobic box, taken out and then cultured in the constant-temperature incubator.
A general note: In broth dilution the organism is exposed to a series of concentrations in liquid medium.

Assay [2] deals with Bacteroides fragilis ATCC 25285. The description is as above. Particulars: ATCC25285; Bacteroides fragilis ATCC 25285; broth microdilution, anaerobic, 37° C., 48 h; read-out: MIC. It is filed as cell-based. On the procedure: as §1
For assay [3], the system named is Porphyromonas gingivalis ATCC 33277. Described as above. In kind it is cell-based. Particulars: ATCC33277; Porphyromonas gingivalis ATCC 33277; broth microdilution, anaerobic, 37° C., 48 h; read-out: MIC. On the procedure: S5, Culture of Porphyromonas gingivalis strain: • the strain stored at −80° C. was resuscitated in the anaerobic glove box with a Colombian blood agar plate, and statically cultured at 37° C. in the constant-temperature incubator for 5-7 days.
as §1

Assay [4] concerns H. pylori ATCC 26695. Put plainly: MIC determination using broth microdilution method, Helicobacter pylori. It is filed as cell-based. Particulars: ATCC26695, H. pylori ATCC 26695(S), metronidazole-susceptible strain, read-out: MIC. On the procedure: (§2) • 1) A frozen solution stored at −80° C. was taken out, and thawed at room temperature; 100 μL of bacterial solution was taken with a pipette, coated onto a Columbia blood agar plate (finished-product medium), put invertedly in a […] culture box, placed in a micro-aerobic gas production bag to achieve a micro-aerobic environment, and cultured at 37° C. for 2-3 days. • 2) A sterile inoculation ring was used to pick Helicobacter pylori single colonies (transparent water droplets) grown on the Colombian blood agar medium and inoculated in the above liquid medium; and cultured at 37° C. in a micro-aerobic environment for 3 days. • 3) A required concentration (absorbance) for the experiment was reached after culture, and the bacterial solution was taken for subsequent experiments.
(§3) The drug concentration at which bacteria ceased to grow or grew at the most significant reduction level was referred to as the MIC value.

The subject of assay [5] is H. pylori ATCC 43504. The description is as above. In kind it is cell-based. Conditions: Helicobacter pylori, ATCC43504; H. pylori ATCC 43504(R), metronidazole-resistant strain; read-out: MIC. On the procedure: as §2, §3
Assay [6] relates to H. pylori NCTC 11637. The assay is described as above. Particulars: Helicobacter pylori, NCTC11637; H. pylori NCTC 11637(R), metronidazole-resistant strain; read-out: MIC. It is filed as cell-based. As for the experimental part:
as §2, §3

For assay [7], the system named is H. pylori Sydney strain SS1. The description is as above. It is filed as cell-based. Conditions: H. pylori Sydney strain SS1, read-out: MIC. As for the experimental part:
as §2, §3

The subject of assay [8] is Clostridioides difficile infection (spores, 027 Type). Put plainly: Clostridioides difficile infection (CDI) mouse model. It is filed as in vivo, C57BL/6 mice. Particulars: for number of surviving mice: 10 animals per group. An excerpt: • 1) Experimental animals: C57BL/6, 4-6 weeks old, female.
In order to evaluate the efficacy of the compounds of the present application on Clostridioides difficile infection, an animal model of Clostridioides difficile infection was established, as shown in FIG. 1. […] On Day 0, the mice were administrated with 10^5 CFU/mL of spores by gavage; and on Days 1 and 2, the mice were administrated with 10^6 CFU/mL of spores by gavage. Starting from Day 3, the mice were given 7 days of drug treatment, and all mice were euthanized at the end of the experiment, except for the death of mice during the treatment.
Two of the conjugates, SCUT1-2 and SCUT1-6, with the optional in-vitro inhibitory activities were selected. […] The therapeutic effect of the conjugate of the present application in the treatment of Clostridioides difficile infection was evaluated.

Assay [9] relates to H. pylori ATCC 43504. Conditions: H. pylori ATCC 43504(R); footnote a; cited from earlier work.
In assay [10] the test system is H. pylori ATCC 26695. Particulars: H. pylori ATCC 26695(S); footnote b; cited from earlier work.
The mark [11] stands for this setting: Day 3 (before the administration), 50 mg/kg groups.

SMILES strings stand for the structures. ≈ marks a conversion by molar mass, not a printed value.

The MIC is the smallest concentration in the dilution series that meets the test's criterion for growth inhibition. With `Cc1ncc([N+](=O)[O-])n1CCO` [Metronidazole], the MIC in [1] is 1 to 2 µg/mL (≈ 5.84 to 11.7 µM); in assay [2] it was 0.25 to 2 µg/mL (≈ 1.46 to 11.7 µM); in assay [3], 2 µg/mL (≈ 11.7 µM); in assay [4], 4 µg/mL (≈ 23.4 µM); in assay [5], greater than 128 µg/mL; in [6], greater than 128 µg/mL. In addition, the MIC in assay [7] came to 8 µg/mL (≈ 46.7 µM). The “number of mice with diarrhea” value is on record as 9 number of mice in assay [8] (setting [11]); 8 number of mice in assay [8] (Day 4, 50 mg/kg); 5 number of mice in [8] (Day 5, 50 mg/kg); 3 number of mice in assay [8] (Day 6, 50 mg/kg); 3 number of mice in assay [8] (Day 7, 50 mg/kg); 3 number of mice in [8] (Day 8, 50 mg/kg). Besides, the “number of mice with diarrhea” value in assay [8] (Day 9, 50 mg/kg) is on record as 3 number of mice. In addition, the “number of surviving mice” value in assay [8] (setting [11]) is 10 number of mice; in assay [8] (Day 4, 50 mg/kg), 9 number of mice; in assay [8] (Day 5, 50 mg/kg), 8 number of mice; in assay [8] (Day 6, 50 mg/kg), 8 number of mice; in assay [8] (Day 7, 50 mg/kg) it was 8 number of mice; in assay [8] (Day 8, 50 mg/kg) it was 8 number of mice. Moreover, the “number of surviving mice” value in assay [8] (Day 9, 50 mg/kg) is 8 number of mice. This molecule also displayed a probability of survival in [8] (after 7 days of drug treatment, 50 mg/kg, Model group 44.44%) of 80%. For the same molecule, the entries for the “MIC reported in related literatures” value in assay [9] and in [10] were “(64-256)^a μg/mL” and “(1-8)^b μg/mL”, respectively.

Turning to `Cc1ncc([N+](=O)[O-])n1CCOC(=O)CC[C@@H](C)[C@H]1CC[C@H]2[C@@H]3[C@H](O)[C@H](O)[C@@H]4C[C@H](O)CC[C@]4(C)[C@H]3CC[C@]12C` [SCUT1-6], the minimum inhibitory concentration (MIC) stood at 0.06 µg/mL (≈ 0.107 µM) in [1]; 2 µg/mL (≈ 3.56 µM) in [2]; 0.25 µg/mL (≈ 0.445 µM) in assay [3]; 4 µg/mL (≈ 7.12 µM) in assay [4]; 8 µg/mL (≈ 14.2 µM) in assay [5]; 8 µg/mL (≈ 14.2 µM) in [6]. Moreover, the minimal inhibitory concentration (MIC) in [7] turned out to be 16 µg/mL (≈ 28.5 µM). Also, the “promotion of inhibitory activity against Clostridioides difficile relative to metronidazole” value in assay [1] (at the same dosage, versus metronidazole) is recorded as “more than 50 times”. Besides, the “inhibitory effect on Clostridioides difficile (ATCC 43255), in words” value in [1] (comment on Table 1) was “particularly prominent”. For the same molecule, the “number of mice with diarrhea” value in [8] (setting [11]) is on record as 8 number of mice; in assay [8] (Day 4, 50 mg/kg), 10 (10) number of mice; in assay [8] (Day 5, 50 mg/kg), 8 number of mice; in assay [8] (Day 6, 50 mg/kg) it was 7 number of mice; in [8] (Day 7, 50 mg/kg), 5 number of mice; in assay [8] (Day 8, 50 mg/kg) it was 6 number of mice. Moreover, in [8] (Day 9, 50 mg/kg), the “number of mice with diarrhea” value is 5 number of mice. For the same molecule, the “number of surviving mice” value is 10 number of mice in assay [8] (setting [11]); 10 (10) number of mice in assay [8] (Day 4, 50 mg/kg); 10 number of mice in assay [8] (Day 5, 50 mg/kg); 10 number of mice in assay [8] (Day 6, 50 mg/kg); 10 number of mice in [8] (Day 7, 50 mg/kg); 10 number of mice in assay [8] (Day 8, 50 mg/kg). Moreover, the “number of surviving mice” value in [8] (Day 9, 50 mg/kg) is 10 number of mice. Moreover, in assay [8] (during drug treatment from Day 3, 50 mg/kg), the “changes in mouse body weights” value was “continued to decrease until the third day of drug treatment (Day 5)”.

The values above are taken from US20260199482A1, “BILE ACID-METRONIDAZOLE CONJUGATE AND USE THEREOF” (SOUTH CHINA UNIVERSITY OF TECHNOLOGY, priority 2022, published 2026).
